Series [1] is described as follows: clinical study of skin brightening and skin redness (chromameter readings). It is filed as in vivo, human. The note with it: 0.3% emulsion twice daily. The protocol:
The skin brightening efficacy of p-HCA in ethoxydyglycol versus kojic acid also was tested in a clinical study. In this study, an emulsion containing 0.3%, by weight, p-HCA or kojic acid was used on twenty, mostly female, subjects between the ages of 30 to 50 years. The test composition was applied to the abdomen twice daily (a.m. and p.m.). The test was conducted for eight weeks, and chromameter readings were taken at baseline, and after 2, 4, 6, and 8 weeks.

Series [2] in a line: solubility of p-HCA in various solvents (HPLC). It is filed as physicochemical. The procedure: Various solvents were tested for an ability to dissolve p-HCA and provide a suitable composition for topical application to efficaciously treat hyperpigmentation, e.g., to allow the HCA to permeate the surface of the skin and deposit the p-HCA at the site of melanin formation. p-HCA was added to various solvents, then sonicated for two hours at 35° C. until no further HCA was dissolved. The samples were cooled to room temperature (25° C.) and allowed to stabilize for 15 hours. The undissolved p-HCA was allowed to settle, the supernatant liquid was filtered through a 0.2 micron syringe filter. Approximately 0.08 g of this filtered material was weighed into a 25 ml volumetric flask and diluted to volume with HPLC mobile phase. Two standards were analyzed by HPLC and compared to the two samples. All samples were analyzed by HPLC on a Hypersil ODS C18 column using water, methanol, glacial acetic acid (55:45:1) as the mobile phase. The flow rate was 1 ml/min and the wavelength for detection was 270 nm.

Series [3] is described as follows: skin penetration, Franz diffusion cells. It is filed as in vitro ADME, human. The procedure:
In another experiment, a 10% solution of p-HCA in ethoxydiglycol first was prepared. This solution was added to a skin care emulsion in a sufficient amount to provide either 0.3% or 0.1%, by weight, of p-HCA in the final composition. As a comparative example, 0.3%, by weight, of solid p-HCA was added to the same skin care emulsion. The skin care emulsion to which solid p-HCA or the p-HCA solution was added had the following formula (w/w%): • 85.35 water • 0.2 methylparaben • 0.35 xanthan gum • 5.0 butylene glycol • 4.0 sesame oil • 2.5 glyceryl stearate • 0.5 PEG-150 distearate • 1.25 neopentyl glycol dicaprylate/dicaprate • 0.6 emulsifying wax • 0.25 imidazolidinyl urea.
The skin care emulsions containing p-HCA were applied to cadaver skin. Skin penetration of p-HCA was studied using Franz diffusion cells, n=5 (Permegear, Bethlehem, Pa.). The receptor contained an isotonic phosphate buffer with 30% ethanol, and was stirred continuously at 600 rpm. Samples of dermatomed human cadaver skin (NDRA, Philadelphia) were placed on the cells and prehydrated for 1 hour prior to the experiment. One milliliter of each formulation was added to the donor compartment of each cell, which was covered tightly with PARAFIL®. Samples (300 μl) were withdrawn from the receptor compartment every hour over 8 hours, and replaced with 300 μl of fresh receptor solution. After 8 hours, the skin was removed and cut into small pieces. The skin pieces were homogenized using a Kinematica POLYTRON® homogenizer and centrifuged. The supernatant was filtered through 0.22μ filters, and the p-HCA content was quantified.
All samples were analyzed by HPLC on a Hypersil ODS C18 column using water, methanol, glacial acetic acid (55:45:1) as the mobile phase at a flow rate of 1 ml/min and detection at 270 nm. Lag time and flux were obtained from permeation profiles and skin drug content also was recorded.
This experiment was repeated using PEG-4 as the solvent for the p-HCA.
The method used to determine skin permeability was the Franz diffusion method disclosed above. […] In particular, 3.9 mcg/ml of p-HCA was found in the receptor compartment of the skin (i.e., permeated through the skin) as opposed to 16.3 mcg/ml p-HCA found within the skin.

A short description of series [4]: metabolism of p-HCA in homogenized human skin. The note with it: eight hours of incubation with skin enzymes, 37° C. The series is classed as in vitro ADME. The protocol: First, to confirm in vivo activity of p-HCA, the metabolism of p-HCA in the skin was determined. In this test, human skin was homogenized in a PBS (phosphate-buffered saline)-ethanol solution, followed by dissolution of p-HCA. The solution was incubated at 37° C. for 8 hours. Samples were taken after 0, 4, and 8 hours, and were centrifuged. The supernatant was filtered and analyzed by HPLC. […] The amount of p-HCA that is metabolized was considered insignificant with respect to an efficacious treatment of hyperpigmentation.

[5] abbreviates: ethoxydiglycol vs solid p-HCA, FIG. 1 and Table 1.
The mark [6] stands for this setting: formula: 0.5% p-HCA, 53% ethanol, Carbopol 981, glycerin, triethanolamine, water.
The mark [7] stands for this setting: in presence of ethoxydiglycol vs powder form.

With `O=c1cc(CO)occ1O` [kojic acid], the “effect on skin redness” value in series [1] (throughout the eight-week clinical trial) is reported as “did not reduce redness”; in series [1] (weeks 4 and 8) it was “induced redness”.

For `O=C(O)C=Cc1ccc(O)cc1` [p-HCA, p-hydroxycinnamic acid], in series [2] (30% hydroethanolic solution, 25° C.), the “solubility in 30% hydroethanolic solution” value is 0.75 wt %. Also, in series [2] (PEG-4, 25° C.), the “solubility in PEG-4” value amounted to 18.5 wt %. The “solubility in PEG-6” value in series [2] (PEG-6, 25° C.) came out at 19.7 wt %. In addition, in series [2] (PEG-8, 25° C.), the “solubility in PEG-8” value turned out to be 19.7 wt %. In addition, the “solubility in butylene glycol” value in series [2] (butylene glycol, 25° C.) amounted to 2.25 wt %. For the same compound, the “solubility in diethylene glycol” value in series [2] (diethylene glycol, 25° C.) came out at 18.1 wt %. In addition, the solubility in ethanol in series [2] (ethanol, 25° C.) is given as 14.8 wt %. The solubility in ethoxydiglycol in series [2] (ethoxydiglycol, 25° C.) is recorded as 19.7 %, by weight. Besides, the “solubility in glycereth-26” value in series [2] (glycereth-26, 25° C.) is on record as 7 wt %. In series [2] (pentylene glycol, 25° C.), the “solubility in pentylene glycol” value was found to be 1.75 wt %. Also, the “solubility in silicone fluid DC 193” value in series [2] (silicone fluid DC 193, 25° C.) is reported as 4.7 wt %. In addition, the “deposition of p-HCA on the skin compared to a control” value in series [3] (PEG-4 as the solvent for the p-HCA) was “significantly increased”. Besides, in series [3] (setting [5]), the “elevation of deposition of p-HCA in the skin” value came out at 93% and the “increase of flux into the skin” value is given as 107%. Besides, in series [3] (setting [6]), the “amount of HCA deposited in the skin relative to amount transmitted through the skin” value is “four times greater”, the “p-HCA found in the receptor compartment (permeated through the skin)” value turned out to be 3.9 µg/mL and the “p-HCA found within the skin” value was found to be 16.3 µg/mL. For the same compound, in series [3] (setting [7]), the “change of flux of p-HCA through the skin” value is listed as “doubled”, the “elevation of percent of p-HCA that permeates cadaver skin” value was 43% and the “elevation of percentage of p-HCA that remained within the skin” value was “about 50%”. In addition, the p-HCA metabolized in series [4] stood at 3.6%.

The values above are taken from patent US20070166251A1, “Composition and method for treating hyperpigmented skin” (LIPO CHEMICALS INC., priority 2005, published 2007).
